# Measured values published in patent US20260285875A1, “INHIBITORS OF PARG” (858 Therapeutics, Inc., priority 2023, published 2026).
# Target: T1, cellular PARG (Homo sapiens, UniProt Q86W56)
# T1 construct: endogenous in cells; host or cells: HeLa
# Test: Nuclear PAR accumulation assay (immunofluorescence high-content imaging, MMS-treated HeLa cells)
# Type: cell-based
# Details: 1 hour compound then MMS 50 μg/mL for an additional hour
# Outline: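 HeLa cells pretreated with compound for 1 h at 37° C, then given 50 μg/mL MMS for another hour. After methanol fixation, PAR was immunostained with DAPI nuclear counterstain; per-nucleus intensity and percent PAR-positive cells were imaged at 20× (≥1,000 cells/well). IC50 from four-parameter logistic fit.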
# T1 sequence (Q86W56 whole entry): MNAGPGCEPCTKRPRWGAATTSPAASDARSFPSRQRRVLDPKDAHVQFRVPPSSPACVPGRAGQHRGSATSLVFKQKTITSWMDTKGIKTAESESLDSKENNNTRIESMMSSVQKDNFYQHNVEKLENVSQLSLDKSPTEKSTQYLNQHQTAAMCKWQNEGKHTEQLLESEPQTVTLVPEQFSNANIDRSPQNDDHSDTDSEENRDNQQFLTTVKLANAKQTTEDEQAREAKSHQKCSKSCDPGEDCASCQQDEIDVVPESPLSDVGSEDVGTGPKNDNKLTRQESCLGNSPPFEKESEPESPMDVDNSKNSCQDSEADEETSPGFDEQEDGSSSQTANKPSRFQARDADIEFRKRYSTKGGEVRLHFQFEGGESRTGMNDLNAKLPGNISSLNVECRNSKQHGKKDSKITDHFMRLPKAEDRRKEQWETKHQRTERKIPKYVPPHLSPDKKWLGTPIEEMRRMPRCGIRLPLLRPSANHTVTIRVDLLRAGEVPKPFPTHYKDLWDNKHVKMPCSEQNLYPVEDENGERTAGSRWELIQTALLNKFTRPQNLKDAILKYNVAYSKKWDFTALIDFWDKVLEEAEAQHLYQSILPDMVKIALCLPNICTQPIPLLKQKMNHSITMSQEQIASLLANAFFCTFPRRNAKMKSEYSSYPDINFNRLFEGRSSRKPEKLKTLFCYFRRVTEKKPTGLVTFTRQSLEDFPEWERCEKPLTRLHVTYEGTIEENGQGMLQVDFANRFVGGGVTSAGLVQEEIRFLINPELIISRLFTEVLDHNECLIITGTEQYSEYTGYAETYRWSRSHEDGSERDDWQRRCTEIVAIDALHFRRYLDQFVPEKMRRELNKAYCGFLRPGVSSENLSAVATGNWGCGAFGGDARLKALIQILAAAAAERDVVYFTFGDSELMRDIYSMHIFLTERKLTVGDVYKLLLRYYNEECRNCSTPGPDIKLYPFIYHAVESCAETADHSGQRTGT
row,Compound,IC50 [nM]
1,"C#C[C@@H]1CN=C2N(Cc3cnn(C)c3)C(=O)c3cc(S(=O)(=O)NC4(C)CC4)cc(Br)c3N21 [Example 72, (R)-9-bromo-1-ethynyl-4-((1-methyl-1H-pyrazol-4-yl)methyl)-N-(1-methylcyclopropyl)-5-oxo-1,2,4,5-tetrahydroimidazo[1,2-a]quinazoline-7-sulfonamide]",< 100
2,"C[C@@H]1CN=C2N(Cc3cnn(C)c3)C(=O)c3cc(S(=O)(=O)NC4(C)COC4)ccc3N21 [Example 73, (R)-1-methyl-4-((1-methyl-1H-pyrazol-4-yl)methyl)-N-(3-methyloxetan-3-yl)-5-oxo-1,2,4,5-tetrahydroimidazo[1,2-a]quinazoline-7-sulfonamide]",100 to 1000
3,"C[C@@H]1CN=C2N(Cc3cnn(C)c3)C(=O)c3cc(S(=O)(=O)NC4(C)CC4)cc(N4CC(C)(N)C4)c3N21 [Example 74, (R)-9-(3-amino-3-methylazetidin-1-yl)-1-methyl-4-((1-methyl-1H-pyrazol-4-yl)methyl)-N-(1-methylcyclopropyl)-5-oxo-1,2,4,5-tetrahydroimidazo[1,2-a]quinazoline-7-sulfonamide]",1000 to 10000
4,"C[C@@H]1CN=C2N(Cc3cnn(C)c3)C(=O)c3cc(S(=O)(=O)NC4(C)CC4)cc(N4CC[C@H](N)C4)c3N21 [Example 75, (R)-9-((S)-3-aminopyrrolidin-1-yl)-1-methyl-4-((1-methyl-1H-pyrazol-4-yl)methyl)-N-(1-methylcyclopropyl)-5-oxo-1,2,4,5-tetrahydroimidazo[1,2-a]quinazoline-7-sulfonamide]",100 to 1000
5,"C#C[C@@H]1CN=C2N(Cc3cnn(C)c3)C(=O)c3cc(S(=O)(=O)NC4(C)CC4)cc(C4=CCN(C)CC4)c3N21 [Example 76, (R)-1-ethynyl-9-(1-methyl-1,2,3,6-tetrahydropyridin-4-yl)-4-((1-methyl-1H-pyrazol-4-yl)methyl)-N-(1-methylcyclopropyl)-5-oxo-1,2,4,5-tetrahydroimidazo[1,2-a]quinazoline-7-sulfonamide]",< 100
6,"Cn1cc(CN2C(=O)c3cc(S(=O)(=O)NC4(C)CC4)ccc3N3C2=NC[C@H]3C#Cc2cnccn2)cn1 [Example 77, (R)-4-((1-methyl-1H-pyrazol-4-yl)methyl)-N-(1-methylcyclopropyl)-5-oxo-1-(pyrazin-2-ylethynyl)-1,2,4,5-tetrahydroimidazo[1,2-a]quinazoline-7-sulfonamide]",< 100
7,"C[C@@H]1CN(c2cc(S(=O)(=O)NC3(C)CC3)cc3c2N2C(=NC[C@H]2C)N(Cc2cnn(C)c2)C3=O)CCN1 [Example 78, (R)-1-methyl-4-((1-methyl-1H-pyrazol-4-yl)methyl)-N-(1-methylcyclopropyl)-9-((R)-3-methylpiperazin-1-yl)-5-oxo-1,2,4,5-tetrahydroimidazo[1,2-a]quinazoline-7-sulfonamide]",100 to 1000
8,"C#C[C@@H]1CN=C2N(Cc3cnn(C)c3)C(=O)c3cc(S(=O)(=O)NC4(C)CC4)cc(C4=CCNCC4)c3N21 [Example 79, (R)-1-ethynyl-4-((1-methyl-1H-pyrazol-4-yl)methyl)-N-(1-methylcyclopropyl)-5-oxo-9-(1,2,3,6-tetrahydropyridin-4-yl)-1,2,4,5-tetrahydroimidazo[1,2-a]quinazoline-7-sulfonamide]",100 to 1000
9,"C[C@@H]1CN=C2N(Cc3cnn(C)c3)C(=O)c3cc(S(=O)(=O)NC4(C)CC4)cc(C4=CCNCC4)c3N21 [Example 80, (R)-1-methyl-4-((1-methyl-1H-pyrazol-4-yl)methyl)-N-(1-methylcyclopropyl)-5-oxo-9-(1,2,3,6-tetrahydropyridin-4-yl)-1,2,4,5-tetrahydroimidazo[1,2-a]quinazoline-7-sulfonamide]",100 to 1000
10,"CCN(CC)CC#C[C@@H]1CN=C2N(Cc3cnn(C)c3)C(=O)c3cc(S(=O)(=O)NC4(C)CC4)ccc3N21 [Example 81, (R)-1-(3-(diethylamino)prop-1-yn-1-yl)-4-((1-methyl-1H-pyrazol-4-yl)methyl)-N-(1-methylcyclopropyl)-5-oxo-1,2,4,5-tetrahydroimidazo[1,2-a]quinazoline-7-sulfonamide]",< 100
11,"C[C@@H]1CN=C2N(Cc3cnn(C)c3)C(=O)c3cc(S(=O)(=O)NC4(C)CC4)cc(N4CCN[C@@H](C)C4)c3N21 [Example 82, (R)-1-methyl-4-((1-methyl-1H-pyrazol-4-yl)methyl)-N-(1-methylcyclopropyl)-9-((S)-3-methylpiperazin-1-yl)-5-oxo-1,2,4,5-tetrahydroimidazo[1,2-a]quinazoline-7-sulfonamide]",1000 to 10000
12,"Cn1cc(CN2C(=O)c3cc(S(=O)(=O)NC4(C)CC4)ccc3N3C2=NC[C@H]3C#Cc2nccn2C)cn1 [Example 83, (R)-1-((1-methyl-1H-imidazol-2-yl)ethynyl)-4-((1-methyl-1H-pyrazol-4-yl)methyl)-N-(1-methylcyclopropyl)-5-oxo-1,2,4,5-tetrahydroimidazo[1,2-a]quinazoline-7-sulfonamide]",< 100
13,"Cc1nnc(N2C3=NC[C@@H](C)N3c3ccc(S(=O)(=O)NC4(C)CC4)cc32)s1 [Example 84, (R)-3-methyl-9-(5-methyl-1,3,4-thiadiazol-2-yl)-N-(1-methylcyclopropyl)-2,9-dihydro-3H-benzo[d]imidazo[1,2-a]imidazole-7-sulfonamide]",100 to 1000
14,C[C@@H]1CCN=C2N(c3nnc(C(F)F)s3)c3cc(S(=O)(=O)NC4(C)CC4)ccc3N21 [Example 85],< 100
15,"CC1(NS(=O)(=O)c2ccc3c(c2)N(c2nnc(C(F)F)s2)C2=NOCCN23)CC1 [Example 86, 10-(5-(difluoromethyl)-1,3,4-thiadiazol-2-yl)-N-(1-methylcyclopropyl)-3,4-dihydro-10H-benzo[4,5]imidazo[2,1-c][1,2,4]oxadiazine-8-sulfonamide]",< 100
16,"Cn1cc(CN2C(=O)c3cc(S(=O)(=O)NC4(C)CC4)ccc3N3C2=NC[C@H]3C#CCN2CCCC2)cn1 [Example 87, (R)-4-((1-methyl-1H-pyrazol-4-yl)methyl)-N-(1-methylcyclopropyl)-5-oxo-1-(3-(pyrrolidin-1-yl)prop-1-yn-1-yl)-1,2,4,5-tetrahydroimidazo[1,2-a]quinazoline-7-sulfonamide]",< 100
17,"C[C@@H]1CN(c2cc(S(=O)(=O)NC3(C)CC3)cc3c2N2C(=NC[C@H]2C)N(Cc2cnn(C)c2)C3=O)C[C@@H](C)N1 [Example 88, (R)-9-((3R,5R)-3,5-dimethylpiperazin-1-yl)-1-methyl-4-((1-methyl-1H-pyrazol-4-yl)methyl)-N-(1-methylcyclopropyl)-5-oxo-1,2,4,5-tetrahydroimidazo[1,2-a]quinazoline-7-sulfonamide]",< 100
18,"Cn1cc(CN2C(=O)c3cc(S(=O)(=O)NC4(C)CC4)ccc3N3C2=NC[C@H]3C#CC2CNC2)cn1 [Example 89, (R)-1-(azetidin-3-ylethynyl)-4-((1-methyl-1H-pyrazol-4-yl)methyl)-N-(1-methylcyclopropyl)-5-oxo-1,2,4,5-tetrahydroimidazo[1,2-a]quinazoline-7-sulfonamide]",1000 to 10000
19,"[2H]C([2H])(c1cnn(C)c1)N1C(=O)c2cc(S(=O)(=O)NC3(C)CC3)ccc2N2C1=NC[C@@H]2C#C [Example 90, (S)-1-ethynyl-4-((1-methyl-1H-pyrazol-4-yl)methyl-d2)-N-(1-methylcyclopropyl)-5-oxo-1,2,4,5-tetrahydroimidazo[1,2-a]quinazoline-7-sulfonamide]",100 to 1000
20,"Cn1cc(C#C[C@H]2CN=C3N(Cc4cnn(C)c4)C(=O)c4cc(S(=O)(=O)NC5(C)CC5)ccc4N32)cn1 [Example 91, (S′)-1-((1-methyl-1H-pyrazol-4-yl)ethynyl)-4-((1-methyl-1H-pyrazol-4-yl)methyl)-N-(1-methylcyclopropyl)-5-oxo-1,2,4,5-tetrahydroimidazo[1,2-a]quinazoline-7-sulfonamide]",100 to 1000
21,"[2H]C([2H])(c1cnn(C)c1)N1C(=O)c2cc(S(=O)(=O)NC3(C)CC3)cc(Cl)c2N2C1=NC[C@@H]2C#CC1CC1 [Example 92, (S)-9-chloro-1-(cyclopropylethynyl)-4-((1-methyl-1H-pyrazol-4-yl)methyl-d2)-N-(1-methylcyclopropyl)-5-oxo-1,2,4,5-tetrahydroimidazo[1,2-a]quinazoline-7-sulfonamide]",100 to 1000
22,"Cn1cc(CN2C(=O)c3cc(S(=O)(=O)NC4(C)CC4)ccc3N3C2=NC[C@@H]3C2CCCC2)cn1 [Example 93, (S)-1-cyclopentyl-4-((1-methyl-1H-pyrazol-4-yl)methyl)-N-(1-methylcyclopropyl)-5-oxo-1,2,4,5-tetrahydroimidazo[1,2-a]quinazoline-7-sulfonamide]",100 to 1000
23,"C#C[C@H]1CN=C2N(Cc3cnn(C)c3)C(=O)c3cc(S(=O)(=O)NC4(C)CC4)cc(Br)c3N21 [Example 94, (S)-9-bromo-1-ethynyl-4-((1-methyl-1H-pyrazol-4-yl)methyl)-N-(1-methylcyclopropyl)-5-oxo-1,2,4,5-tetrahydroimidazo[1,2-a]quinazoline-7-sulfonamide]",100 to 1000
24,"[2H]C([2H])(c1cnn(C)c1)N1C(=O)c2cc(S(=O)(=O)NC3(C)CC3)cc(Br)c2N2C1=NC[C@@H]2C#CC1CC1 [Example 95, (S)-9-bromo-1-(cyclopropylethynyl)-4-((1-methyl-1H-pyrazol-4-yl)methyl-d2)-N-(1-methylcyclopropyl)-5-oxo-1,2,4,5-tetrahydroimidazo[1,2-a]quinazoline-7-sulfonamide]",100 to 1000
25,"[2H]C([2H])(c1cnn(C)c1)N1C(=O)c2cc(S(=O)(=O)NC3(C)CC3)ccc2N2C1=NC[C@H]2C#CCC(C)C [Example 96, (R)-4-((1-methyl-1H-pyrazol-4-yl)methyl-d2)-N-(1-methylcyclopropyl)-1-(4-methylpent-1-yn-1-yl)-5-oxo-1,2,4,5-tetrahydroimidazo[1,2-a]quinazoline-7-sulfonamide]",< 100
